Assay results from patent US12215140B2, “Method of stabilizing protein contained in specimen and solution for stabilizing protein contained in specimen” (EIKEN KAGAKU KABUSHIKI KAISHA, priority 2018, dated 2025).

Biological target: hemoglobin (Homo sapiens, UniProt P68871+P69905)
Experiment: Stability of hemoglobin in samples preserved at 37° C. in preservation solution containing no haptoglobin, Hb measured by latex agglutination method (Examples 8, 9 and Table 10)
Settings: arylboronic acid 0.5 mmol/L
Description: Preservation solutions were prepared with the addition of 40 mmol/L HEPES (pH 6.8), 0.1% BSA, 0.1% NaN3, and 0 to 2.5 mmol/L phenylboronic acid. […] Samples obtained by adding hemoglobin-added fecal specimens to the preservation solutions so that the fecal concentration would be 0.5% were preserved at 37° C. for 0, 16, 38, and 62 hours. The fecal specimens were added with hemoglobin having an amount such that the hemoglobin concentration in the samples would be about 300 μg/L. Instead of the fecal specimens to which hemoglobin was added, samples containing no fecal specimens, in which hemoglobin was added to the preservation solutions so that the hemoglobin concentration in the samples would be 300 μg/L, were similarly preserved. The hemoglobin (Hb) concentrations (μg/L) in the preserved samples were measured by the latex agglutination method using the same measurement reagent and measurement device as in Example 1.
The concentration of phenylboronic acid in the preservation solutions of Example 8 was fixed to 0.5 mmol/L, preservation solutions to which sorbitol or sucrose was further added at 10 to 250 mmol/L or trehalose, glucose, fructose, or mannitol was further added at 50 to 100 mmol/L were prepared, and testing was conducted in the same manner as in Example 8. In addition, preservation solutions to which the phenylboronic acid was added but no sugar was added were prepared, preservation solutions to which the phenylboronic acid and sugar were not added were prepared for the comparative examples, and testing was conducted in the same manner.
For comparative examples, preservation solutions to which no arylboronic acid was added were prepared, and testing was conducted in the same manner.

[1] = Feces 1, 0 h at 37° C., no sugar
[2] = Feces 1, 16 h at 37° C., no sugar
[3] = Feces 1, 38 h at 37° C., no sugar
[4] = Feces 1, 62 h at 37° C., no sugar
[5] = Feces 2, 0 h at 37° C., no sugar
[6] = Feces 2, 16 h at 37° C., no sugar
[7] = Feces 2, 38 h at 37° C., no sugar
[8] = Feces 2, 62 h at 37° C., no sugar
[9] = Feces 3, 0 h at 37° C., no sugar
[10] = Feces 3, 16 h at 37° C., no sugar
[11] = Feces 3, 38 h at 37° C., no sugar
[12] = Feces 3, 62 h at 37° C., no sugar
[13] = No feces, 0 h at 37° C., no sugar
[14] = No feces, 16 h at 37° C., no sugar
[15] = No feces, 38 h at 37° C., no sugar
[16] = No feces, 62 h at 37° C., no sugar

Sequence of hemoglobin (P69905 2-142): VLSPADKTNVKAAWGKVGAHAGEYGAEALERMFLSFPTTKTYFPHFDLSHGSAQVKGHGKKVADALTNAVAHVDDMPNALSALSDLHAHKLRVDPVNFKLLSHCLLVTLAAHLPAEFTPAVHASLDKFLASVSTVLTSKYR
Sequence of hemoglobin (P68871 2-147): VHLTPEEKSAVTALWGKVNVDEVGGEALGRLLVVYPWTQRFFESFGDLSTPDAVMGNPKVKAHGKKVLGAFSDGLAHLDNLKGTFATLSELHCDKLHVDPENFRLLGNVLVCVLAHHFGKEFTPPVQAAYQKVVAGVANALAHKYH

O=C(O)c1cccc(B(O)O)c1 [3C-PBA, 3-carboxyphenylboronic acid]
Hb concentration [1]: 296 µg/L | Recovery ratio with respect to Hb after 0 days [1]: 100% | Hb concentration [2]: 163 µg/L | Recovery ratio with respect to Hb after 0 days [2]: 55% | Hb concentration [3]: 68 µg/L | Recovery ratio with respect to Hb after 0 days [3]: 23% | Hb concentration [4]: 20 µg/L | Recovery ratio with respect to Hb after 0 days [4]: 7% | Hb concentration (Feces 1, 0 h at 37° C.): 296 µg/L | Recovery ratio with respect to Hb after 0 days (Feces 1, 0 h at 37° C.): 100% | Hb concentration (Feces 1, 16 h at 37° C.): 163 µg/L | Recovery ratio with respect to Hb after 0 days (Feces 1, 16 h at 37° C.): 55% | Hb concentration (Feces 1, 38 h at 37° C.): 68 µg/L | Recovery ratio with respect to Hb after 0 days (Feces 1, 38 h at 37° C.): 23% | Hb concentration (Feces 1, 62 h at 37° C.): 20 µg/L | Recovery ratio with respect to Hb after 0 days (Feces 1, 62 h at 37° C.): 7% | Hb concentration [5]: 288 µg/L | Recovery ratio with respect to Hb after 0 days [5]: 100% | Hb concentration [6]: 90 µg/L | Recovery ratio with respect to Hb after 0 days [6]: 31% | Hb concentration [7]: 8 µg/L | Recovery ratio with respect to Hb after 0 days [7]: 3% | Hb concentration [8]: 0 µg/L | Recovery ratio with respect to Hb after 0 days [8]: 0% | Hb concentration (Feces 2, 0 h at 37° C.): 288 µg/L | Recovery ratio with respect to Hb after 0 days (Feces 2, 0 h at 37° C.): 100% | Hb concentration (Feces 2, 16 h at 37° C.): 90 µg/L | Recovery ratio with respect to Hb after 0 days (Feces 2, 16 h at 37° C.): 31% | Hb concentration (Feces 2, 38 h at 37° C.): 8 µg/L | Recovery ratio with respect to Hb after 0 days (Feces 2, 38 h at 37° C.): 3% | Hb concentration (Feces 2, 62 h at 37° C.): 0 µg/L | Recovery ratio with respect to Hb after 0 days (Feces 2, 62 h at 37° C.): 0% | Hb concentration [9]: 281 µg/L | Recovery ratio with respect to Hb after 0 days [9]: 100% | Hb concentration [10]: 95 µg/L | Recovery ratio with respect to Hb after 0 days [10]: 34% | Hb concentration [11]: 5 µg/L | Recovery ratio with respect to Hb after 0 days [11]: 2% | Hb concentration [12]: 0 µg/L | Recovery ratio with respect to Hb after 0 days [12]: 0% | Hb concentration (Feces 3, 0 h at 37° C.): 281 µg/L | Recovery ratio with respect to Hb after 0 days (Feces 3, 0 h at 37° C.): 100% | Hb concentration (Feces 3, 16 h at 37° C.): 95 µg/L | Recovery ratio with respect to Hb after 0 days (Feces 3, 16 h at 37° C.): 34% | Hb concentration (Feces 3, 38 h at 37° C.): 5 µg/L | Recovery ratio with respect to Hb after 0 days (Feces 3, 38 h at 37° C.): 2% | Hb concentration (Feces 3, 62 h at 37° C.): 0 µg/L | Recovery ratio with respect to Hb after 0 days (Feces 3, 62 h at 37° C.): 0% | Hb concentration [13]: 299 µg/L | Recovery ratio with respect to Hb after 0 days [13]: 100% | Hb concentration [14]: 279 µg/L | Recovery ratio with respect to Hb after 0 days [14]: 94% | Hb concentration [15]: 264 µg/L | Recovery ratio with respect to Hb after 0 days [15]: 88% | Hb concentration [16]: 266 µg/L | Recovery ratio with respect to Hb after 0 days [16]: 89% | Hb concentration (No feces, 0 h at 37° C.): 299 µg/L | Recovery ratio with respect to Hb after 0 days (No feces, 0 h at 37° C.): 100% | Hb concentration (No feces, 16 h at 37° C.): 279 µg/L | Recovery ratio with respect to Hb after 0 days (No feces, 16 h at 37° C.): 94% | Hb concentration (No feces, 38 h at 37° C.): 264 µg/L | Recovery ratio with respect to Hb after 0 days (No feces, 38 h at 37° C.): 88% | Hb concentration (No feces, 62 h at 37° C.): 266 µg/L | Recovery ratio with respect to Hb after 0 days (No feces, 62 h at 37° C.): 89%

OB(O)c1cccc(O)c1 [3H-PBA, 3-hydroxyphenylboronic acid]
Hb concentration [1]: 298 µg/L | Recovery ratio with respect to Hb after 0 days [1]: 100% | Hb concentration [2]: 171 µg/L | Recovery ratio with respect to Hb after 0 days [2]: 57% | Hb concentration [3]: 79 µg/L | Recovery ratio with respect to Hb after 0 days [3]: 26% | Hb concentration [4]: 25 µg/L | Recovery ratio with respect to Hb after 0 days [4]: 8% | Hb concentration (Feces 1, 0 h at 37° C.): 298 µg/L | Recovery ratio with respect to Hb after 0 days (Feces 1, 0 h at 37° C.): 100% | Hb concentration (Feces 1, 16 h at 37° C.): 171 µg/L | Recovery ratio with respect to Hb after 0 days (Feces 1, 16 h at 37° C.): 57% | Hb concentration (Feces 1, 38 h at 37° C.): 79 µg/L | Recovery ratio with respect to Hb after 0 days (Feces 1, 38 h at 37° C.): 26% | Hb concentration (Feces 1, 62 h at 37° C.): 25 µg/L | Recovery ratio with respect to Hb after 0 days (Feces 1, 62 h at 37° C.): 8% | Hb concentration [5]: 295 µg/L | Recovery ratio with respect to Hb after 0 days [5]: 100% | Hb concentration [6]: 95 µg/L | Recovery ratio with respect to Hb after 0 days [6]: 32% | Hb concentration [7]: 11 µg/L | Recovery ratio with respect to Hb after 0 days [7]: 4% | Hb concentration [8]: 0 µg/L | Recovery ratio with respect to Hb after 0 days [8]: 0% | Hb concentration (Feces 2, 0 h at 37° C.): 295 µg/L | Recovery ratio with respect to Hb after 0 days (Feces 2, 0 h at 37° C.): 100% | Hb concentration (Feces 2, 16 h at 37° C.): 95 µg/L | Recovery ratio with respect to Hb after 0 days (Feces 2, 16 h at 37° C.): 32% | Hb concentration (Feces 2, 38 h at 37° C.): 11 µg/L | Recovery ratio with respect to Hb after 0 days (Feces 2, 38 h at 37° C.): 4% | Hb concentration (Feces 2, 62 h at 37° C.): 0 µg/L | Recovery ratio with respect to Hb after 0 days (Feces 2, 62 h at 37° C.): 0% | Hb concentration [9]: 295 µg/L | Recovery ratio with respect to Hb after 0 days [9]: 100% | Hb concentration [10]: 106 µg/L | Recovery ratio with respect to Hb after 0 days [10]: 36% | Hb concentration [11]: 9 µg/L | Recovery ratio with respect to Hb after 0 days [11]: 3% | Hb concentration [12]: 0 µg/L | Recovery ratio with respect to Hb after 0 days [12]: 0% | Hb concentration (Feces 3, 0 h at 37° C.): 295 µg/L | Recovery ratio with respect to Hb after 0 days (Feces 3, 0 h at 37° C.): 100% | Hb concentration (Feces 3, 16 h at 37° C.): 106 µg/L | Recovery ratio with respect to Hb after 0 days (Feces 3, 16 h at 37° C.): 36% | Hb concentration (Feces 3, 38 h at 37° C.): 9 µg/L | Recovery ratio with respect to Hb after 0 days (Feces 3, 38 h at 37° C.): 3% | Hb concentration (Feces 3, 62 h at 37° C.): 0 µg/L | Recovery ratio with respect to Hb after 0 days (Feces 3, 62 h at 37° C.): 0% | Hb concentration [13]: 306 µg/L | Recovery ratio with respect to Hb after 0 days [13]: 100% | Hb concentration [14]: 282 µg/L | Recovery ratio with respect to Hb after 0 days [14]: 92% | Hb concentration [15]: 263 µg/L | Recovery ratio with respect to Hb after 0 days [15]: 86% | Hb concentration [16]: 264 µg/L | Recovery ratio with respect to Hb after 0 days [16]: 86% | Hb concentration (No feces, 0 h at 37° C.): 306 µg/L | Recovery ratio with respect to Hb after 0 days (No feces, 0 h at 37° C.): 100% | Hb concentration (No feces, 16 h at 37° C.): 282 µg/L | Recovery ratio with respect to Hb after 0 days (No feces, 16 h at 37° C.): 92% | Hb concentration (No feces, 38 h at 37° C.): 263 µg/L | Recovery ratio with respect to Hb after 0 days (No feces, 38 h at 37° C.): 86% | Hb concentration (No feces, 62 h at 37° C.): 264 µg/L | Recovery ratio with respect to Hb after 0 days (No feces, 62 h at 37° C.): 86%
